How the values were obtained:
Type in all cases: in vivo
Settings in all cases: 250 g/ha, evaluated after 13 days
AMAPA [1] = test: Pre-emergence biological efficacy, glasshouse
Procedure: (§1) Seeds of weeds and/or crops were sown in standard soil in pots. After cultivation for one day under controlled conditions in a glasshouse (at 24/19° C., day/night; 16 hours light), the plants were sprayed with an aqueous spray solution derived from the formulation of the technical active ingredient in a small amount of acetone and a special solvent and emulsifier mixture referred to as IF50 (11.12% Emulsogen EL360 TM+44.44% N-methylpyrrolidone+44.44% Dowanol DPM glycol ether), to create a 50 g/I solution which was then diluted using 0.2% Genapol X080 as diluent to give the desired final dose of test compound.
(§2) The test plants were then grown under controlled conditions in the glasshouse (at 24/18° C., day/night; […]; 50% humidity) and watered twice daily. After 13 days the test was evaluated (100=total damage to plant; 0=no damage to plant).

LOLPE [2] = test: Pre-emergence biological efficacy, glasshouse
Procedure: as §1, §2

IPOHE [3] = test: Pre-emergence biological efficacy, glasshouse
Procedure: as §1, §2

SETFA [4] = test: Pre-emergence biological efficacy, glasshouse
Procedure: as §1, §2

ECHCG [5] = test: Pre-emergence biological efficacy, glasshouse
Procedure: as §1, §2

EPHHL [6] = test: Pre-emergence biological efficacy, glasshouse
Procedure: as §1, §2

AMAPA [7] = test: Post-emergence biological efficacy, glasshouse
Procedure: as §1, with “14 days” for “one day”
(§3) The test plants were then grown under controlled conditions in the glasshouse (at 24/18° C., day/night; 15 hours light; 50% humidity) and watered twice daily. After 13 days the test was evaluated (100=total damage to plant; 0=no damage to plant).

LOLPE [8] = test: Post-emergence biological efficacy, glasshouse
Procedure: as §1, with “14 days” for “one day”
as §3

IPOHE [9] = test: Post-emergence biological efficacy, glasshouse
Procedure: as §1, with “14 days” for “one day”
as §3

SETFA [10] = test: Post-emergence biological efficacy, glasshouse
Procedure: as §1, with “14 days” for “one day”
as §3

DIGSA = test: Post-emergence biological efficacy, glasshouse
Procedure: as §1, with “14 days” for “one day”
as §3

CHEAL = test: Post-emergence biological efficacy, glasshouse
Procedure: as §1, with “14 days” for “one day”
as §3

ECHCG [11] = test: Post-emergence biological efficacy, glasshouse
Procedure: as §1, with “14 days” for “one day”
as §3

EPHHL [12] = test: Post-emergence biological efficacy, glasshouse
Procedure: as §1, with “14 days” for “one day”
as §3

ELEIN = test: Post-emergence biological efficacy, glasshouse
Procedure: as §1, with “14 days” for “one day”
as §3

CCOC(=O)C1(C)CC(c2cc(-n3c(OC)nc(C(F)(F)F)cc3=O)c(F)cc2Cl)=NO1 (racemic) [Compound 11, Ethyl 3-[2-chloro-4-fluoro-5-[2-methoxy-6-oxo-4-(trifluoromethyl)pyrimidin-1-yl]phenyl]-5-methyl-4H-isoxazole-5-carboxylate]
damage to plant (100=total damage to plant; 0=no damage to plant), AMAPA (AMAPA [1]): 100
damage to plant (100=total damage to plant; 0=no damage to plant), LOLPE (LOLPE [2]): 80
damage to plant (100=total damage to plant; 0=no damage to plant), IPOHE (IPOHE [3]): 80
damage to plant (100=total damage to plant; 0=no damage to plant), SETFA (SETFA [4]): 100
damage to plant (100=total damage to plant; 0=no damage to plant), ECHCG (ECHCG [5]): 100
damage to plant (100=total damage to plant; 0=no damage to plant), EPHHL (EPHHL [6]): 100
damage to plant (100=total damage to plant; 0=no damage to plant), AMAPA (AMAPA [7]): 100
damage to plant (100=total damage to plant; 0=no damage to plant), LOLPE (LOLPE [8]): 100
damage to plant (100=total damage to plant; 0=no damage to plant), IPOHE (IPOHE [9]): 100
damage to plant (100=total damage to plant; 0=no damage to plant), SETFA (SETFA [10]): 100
damage to plant (100=total damage to plant; 0=no damage to plant), DIGSA (DIGSA): 100
damage to plant (100=total damage to plant; 0=no damage to plant), CHEAL (CHEAL): 100
damage to plant (100=total damage to plant; 0=no damage to plant), ECHCG (ECHCG [11]): 100
damage to plant (100=total damage to plant; 0=no damage to plant), EPHHL (EPHHL [12]): 100
damage to plant (100=total damage to plant; 0=no damage to plant), ELEIN (ELEIN): 100

CCOC(=O)[C@@]1(C)CC(c2cc(-n3c(OC)nc(C(F)(F)F)cc3=O)c(F)cc2Cl)=NO1 [11 (R-enantiomer), Ethyl (5R)-3-[2-chloro-4-fluoro-5-[2-methoxy-6-oxo-4-(trifluoromethyl)pyrimidin-1-yl]phenyl]-5-methyl-4H-isoxazole-5-carboxylate]
damage to plant (100=total damage to plant; 0=no damage to plant), AMAPA (AMAPA [1]): 10
damage to plant (100=total damage to plant; 0=no damage to plant), LOLPE (LOLPE [2]): 10
damage to plant (100=total damage to plant; 0=no damage to plant), IPOHE (IPOHE [3]): 70
damage to plant (100=total damage to plant; 0=no damage to plant), SETFA (SETFA [4]): 90
damage to plant (100=total damage to plant; 0=no damage to plant), ECHCG (ECHCG [5]): 90
damage to plant (100=total damage to plant; 0=no damage to plant), EPHHL (EPHHL [6]): 50
damage to plant (100=total damage to plant; 0=no damage to plant), AMAPA (AMAPA [7]): 100
damage to plant (100=total damage to plant; 0=no damage to plant), LOLPE (LOLPE [8]): 100
damage to plant (100=total damage to plant; 0=no damage to plant), IPOHE (IPOHE [9]): 100
damage to plant (100=total damage to plant; 0=no damage to plant), SETFA (SETFA [10]): 80
damage to plant (100=total damage to plant; 0=no damage to plant), DIGSA (DIGSA): 100
damage to plant (100=total damage to plant; 0=no damage to plant), CHEAL (CHEAL): 100
damage to plant (100=total damage to plant; 0=no damage to plant), ECHCG (ECHCG [11]): 100
damage to plant (100=total damage to plant; 0=no damage to plant), EPHHL (EPHHL [12]): 90
damage to plant (100=total damage to plant; 0=no damage to plant), ELEIN (ELEIN): 100

CCOC(=O)[C@]1(C)CC(c2cc(-n3c(OC)nc(C(F)(F)F)cc3=O)c(F)cc2Cl)=NO1 [11 (S-enantiomer), ethyl (5S)-3-[2-chloro-4-fluoro-5-[2-methoxy-6-oxo-4-(trifluoromethyl)pyrimidin-1-yl]phenyl]-5-methyl-4H-isoxazole-5-carboxylate]
damage to plant (100=total damage to plant; 0=no damage to plant), AMAPA (AMAPA [1]): 100
damage to plant (100=total damage to plant; 0=no damage to plant), LOLPE (LOLPE [2]): 40
damage to plant (100=total damage to plant; 0=no damage to plant), IPOHE (IPOHE [3]): 80
damage to plant (100=total damage to plant; 0=no damage to plant), SETFA (SETFA [4]): 100
damage to plant (100=total damage to plant; 0=no damage to plant), ECHCG (ECHCG [5]): 100
damage to plant (100=total damage to plant; 0=no damage to plant), EPHHL (EPHHL [6]): 90
damage to plant (100=total damage to plant; 0=no damage to plant), AMAPA (AMAPA [7]): 100
damage to plant (100=total damage to plant; 0=no damage to plant), LOLPE (LOLPE [8]): 100
damage to plant (100=total damage to plant; 0=no damage to plant), IPOHE (IPOHE [9]): 100
damage to plant (100=total damage to plant; 0=no damage to plant), SETFA (SETFA [10]): 100
damage to plant (100=total damage to plant; 0=no damage to plant), DIGSA (DIGSA): 100
damage to plant (100=total damage to plant; 0=no damage to plant), CHEAL (CHEAL): 100
damage to plant (100=total damage to plant; 0=no damage to plant), ECHCG (ECHCG [11]): 100
damage to plant (100=total damage to plant; 0=no damage to plant), EPHHL (EPHHL [12]): 100
damage to plant (100=total damage to plant; 0=no damage to plant), ELEIN (ELEIN): 100

Source: US20260015342A1, “HERBICIDAL PYRIMIDINONE DERIVATIVES” (SYNGENTA CROP PROTECTION AG, priority 2022, published 2026)
